According to patent publication US20050289663A1, “Method of constructing orchid haploid by treating unfertilized orchid flower with auxin and method of growing orchid” (SAPPORO BREWERIES LIMITED, priority 2002, published 2005):

Legend:
Zygopetalum = details: given to stigma of Zygopetalum; cited from earlier work
[1] = tested on: Bletilla. Brigantes “H5-11”; experiment: Auxin treatment of unfertilized orchid flowers: parthenogenetic seed formation, germination and ploidy check (flow cytometry, chromosome count); type: in vivo
Experimental: In the first embodiment, Bletilla. Brigantes “H5-11” was used. The supplied testing plants were grown in the conventional method. The blooming was affirmed, pollens were removed and a treatment of dropping of 10 micro liter was performed with the warmed lanolin paste which contains 2% of α-naphthaleneacetic acid at column using the syringe. Since two or more flowers might exist in the same inflorescence, the above-mentioned treatment was performed about for each one repeatedly five or more times. After individuals in which its ovary got fat are ripened completely (6 to 7 months after the treatment), then they were obtained, they were sterilized their surface for 5 minutes with 0.5% of sodium hydrochlorite solution, planted them on a medium in germfree container, and the germination was forced. After planting, when the number of planted seeds and the number of seed with embryo were observed, 11 seeds with embryo were observed out of 7000 of the planted total number of seeds. […] After plants originating in auxin treatment grew in the suitable size for sampling (1 to 2 months after germination), DNA contents of these plants originating in auxin treatment were measured by flow cytometry, then chromosomes were observed simultaneously and the number of chromosomes was investigated. The investigation was done by obtaining new leaf of seedling, plants treated with α-naphthaleneacetic acid (NAA) of the present invention were investigated and also plants originating in self-pollination were investigated as a comparison. FIG. 2 is views showing results of analysis based on flow cytometry. FIG. 3 is views showing observation results of chromosomes under a microscope.

O=C(O)Cc1cccc2ccccc12 [α-naphthaleneacetic acid]
induction of parthenogenesis (Zygopetalum): parthenogenesis has been induced
number of chromosomes of the plant originating in auxin treatment ([1]; 1 to 2 months after germination, microscope, 32 chromosomes for Bletilla Bringantes): 16
DNA amount by flow cytometry: peak position versus plant originating in self-pollination ([1]; 1 to 2 months after germination, new leaf of seedling): half ploidy level
buds of plants originating in auxin treatment observed in the seeds with embryo ([1]; 2 weeks after planting of seeds, from the 11 seeds with embryo): 8
DNA contents by flow cytometry: peak position versus plants originating in self-pollination ([1]; 5 to 6 months after germination): almost same position
number of seeds with embryo ([1]; out of 7000 of the planted total number of seeds, 10 micro liter lanolin paste containing 2% α-naphthaleneacetic acid dropped at column of unfertilized flower): 11
